pIC50: −log10 of the molar value.

For orientation: pIC50 means the IC50 on a negative log10 scale, so that one unit is a factor of ten.

Sequence of bovine cerebral TPK1 (A0A059UE90 1-419): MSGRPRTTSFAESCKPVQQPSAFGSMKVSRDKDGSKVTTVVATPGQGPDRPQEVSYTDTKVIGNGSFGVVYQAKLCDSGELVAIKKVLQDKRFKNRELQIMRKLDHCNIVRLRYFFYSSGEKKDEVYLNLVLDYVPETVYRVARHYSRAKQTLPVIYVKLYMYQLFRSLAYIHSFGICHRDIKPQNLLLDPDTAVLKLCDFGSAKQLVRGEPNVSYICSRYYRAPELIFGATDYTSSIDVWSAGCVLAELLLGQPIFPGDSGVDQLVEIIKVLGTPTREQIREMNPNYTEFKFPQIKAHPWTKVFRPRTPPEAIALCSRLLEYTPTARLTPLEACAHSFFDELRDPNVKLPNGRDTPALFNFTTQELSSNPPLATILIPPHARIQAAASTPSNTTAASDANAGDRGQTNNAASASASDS

The first test has as its target bovine cerebral TPK1 (Bos taurus, UniProt A0A059UE90). The test can be described thus: Inhibitory activity against P-GS1 phosphorylation by bovine cerebral TPK1. The format is biochemical.
Details: not given
As to the method:
Inhibitory Activity of the Medicament of the Present Invention Against P-GS1 Phosphorylation by Bovine Cerebral TPK1 […] The phosphorylation was started by adding ATP, and the reaction was conducted at 25° C. for 2 hours, and then stopped by adding 21% perchloric acid on ice cooling. The reaction mixture was centrifuged at 12,000 rpm for 5 minutes and adsorbed on P81 paper (Whatmann), and then the paper was washed four times with 75 mM phosphoric acid, three times with water and once with acetone. The paper was dried, and the residual radioactivity was measured using a liquid scintillation counter.
On to `Cn1c(O[C@H]2C[C@H]3CC[C@@H](C2)N3)nc(-c2ccncn2)cc1=O` [Compound No. 2.101, endo-2-(8-Aza-bicyclo[3.2.1]oct-3-yloxy)-1-methyl-1H-[4,4′] bipyrimidinyl-6-one], for which the pIC50 was 6.47 to 6.94.

Staying with this test, now noted: P-GS1 phosphorylation, 41.7 μM [γ-32P] ATP, 25° C., 2 hours; read-out: IC50.
Take `Cn1c(OC2CCN(c3ccccc3CN3Cc4ccccc4C3)CC2)nc(-c2ccncn2)cc1=O` [1.304, 2-{1-[2-(1,3-Dihydro-isoindol-2-ylmethyl)phenyl]piperidin-4-yloxy}-1-methyl-1H-[4,4′] bipyrimidinyl-6-one]: the pIC50 was 7.60. Regarding `Cc1ccc(S(=O)(=O)N2CCC(Oc3nc(-c4ccncn4)cc(=O)n3C)CC2)cc1` [1.111, 1-Methyl-2-[1-(toluene-4-sulfonyl)piperidin-4-yloxy]-1H-[4,4′] bipyrimidinyl-6-one], the pIC50 was 6.71.

For `Cn1c(OC2CCCCC2)nc(-c2ccncn2)cc1=O` [1.802, 2-Cyclohexyloxy-1-methyl-1H-[4,4′]bipyrimidinyl-6-one], the negative-log IC50 (pIC50) is 7.65. Take `CN(C)Cc1ccc(C(=O)N2CCC(Oc3nc(-c4ccncn4)cc(=O)n3C)CC2)cc1` [Compound No. 1.601, 2-[1-(4-Dimethylaminomethyl-benzoyl)piperidin-4-yloxy]-1-methyl-1H-[4,4′]bipyrimidinyl-6-one]: the pIC50 is 7.40. In the case of `CN1CCN(c2ccc(N3CCC(Oc4nc(-c5ccncn5)cc(=O)n4C)CC3)cc2)CC1` [1.209, 1-Methyl-2-{1-[4-(4-methyl-piperazin-1-yl)phenyl]piperidin-4-yloxy}-1H-[4,4′]bipyrimidinyl-6-one], the pIC50 is 7.75. The same measure, in the same setting: in the case of `Cn1c(OC2CCN(c3ccc(CN4CCCCC4)cc3)CC2)nc(-c2ccncc2)cc1=O` [1.215, 3-Methyl-2-[1-(4-piperidin-1-ylmethyl-phenyl)piperidin-4-yloxy]-6-pyridin-4-yl-3H-pyrimidin-4-one] it was 7.30. The same measure, in the same setting: the result for `Cn1c(OC2CCCN(c3cccc(F)c3)C2)nc(-c2ccncn2)cc1=O` (centres unmarked) [1.104, 2-[1-(3-Fluoro-phenyl)piperidin-3-yloxy]-1-methyl-1H-[4,4′] bipyrimidinyl-6-one] reads 8.05; that for `Cn1c(OC2CCCN(S(=O)(=O)c3ccccc3)C2)nc(-c2ccncn2)cc1=O` (centres unmarked) [1.109, 2-(1-Benzenesulfonyl-piperidin-3-yloxy)-1-methyl-1H-[4,4′] bipyrimidinyl-6-one], 7.12; that for `COc1cccc(N2CCCC(Oc3nc(-c4ccncn4)cc(=O)n3C)C2)c1` (centres unmarked) [1.106, 2-[1-(3-Methoxy-phenyl)piperidin-3-yloxy]-1-methyl-1H-[4,4′]bipyrimidinyl-6-one], 8.82. In the case of `Cn1c(OC2CCN(CCC3CCN(Cc4ccccc4)CC3)CC2)nc(-c2ccncn2)cc1=O` [Compound No. 1.502, 2-{1-[2-(1-Benzyl-piperidin-4-yl)ethyl]piperidin-4-yloxy}-1-methyl-1H-[4,4′]bipyrimidinyl-6-one], the pIC50 is 7.47. For `Cn1c(OC[C@@H]2CCCN2c2ccc(F)cc2)nc(-c2ccncn2)cc1=O` [2.204, 2-[(2S)-1-(4-Fluoro-phenyl)pyrrolidin-2-ylmethoxy]-1-methyl-1H-[4,4′]bipyrimidinyl-6-one], the pIC50 is 7.42. Consider `Cc1ccccc1N1CCC(Oc2nc(-c3ccncn3)cc(=O)n2C)CC1` [1.206, 1-Methyl-2-(1-o-tolyl-piperidin-4-yloxy)-1H-[4,4′]bipyrimidinyl-6-one], for which the negative-log IC50 (pIC50) is 7.22.

`CN1CCN(Cc2ccccc2N2CCC(Oc3nc(-c4ccncn4)cc(=O)n3C)CC2)CC1` [1.302, 1-Methyl-2-{1-[2-(4-methyl-piperazin-1-ylmethyl)phenyl]piperidin-4-yloxy}-1H-[4,4′]bipyrimidinyl-6-one]: the pIC50 was 7.83. Same read-out and setting: the result for `Cn1c(OC[C@H]2CCN(c3ccccc3)C2)nc(-c2ccncc2F)cc1=O` [2.210, 6-(3-Fluoro-pyridin-4-yl)-3-methyl-2-[(3S)-1-phenyl-pyrrolidin-3-ylmethoxy]-3H-pyrimidin-4-one] reads 6.87. Still for that read-out and setting: in the case of `Cn1c(OC2CCN(c3ccc4c(c3)CNC4)CC2)nc(-c2ccncn2)cc1=O` [1.225, 2-[1-(2,3-Dihydro-1H-isoindol-5-yl)piperidin-4-yloxy]-1-methyl-1H-[4,4′]bipyrimidinyl-6-one] it was 8.03; in that of `Cn1c(OC[C@H]2CCN(c3ccsc3)C2)nc(-c2ccncc2F)cc1=O` [Compound No. 2.206, 6-(3-Fluoro-pyridin-4-yl)-3-methyl-2-[(3S)-1-(thiophen-3-yl)pyrrolidin-3-ylmethoxy]-3H-pyrimidin-4-one], 7.14. The same measure, in the same setting: in the case of `Cn1c(OCCc2ccccc2)nc(-c2ccncc2)cc1=O` [2.002, 3-Methyl-2-phenethyloxy-6-pyridin-4-yl-3H-pyrimidin-4-one] it was 6.70; in that of `Cn1c(OCCc2ccccc2)nc(-c2ccncn2)cc1=O` [2.302, 1-Methyl-2-phenethyloxy-1H-[4,4′]bipyrimidinyl-6-one], 6.80.

For the compound `Cn1c(OCC2CCN(c3ccc(CN4CCCCC4)cc3)CC2)nc(-c2ccncn2)cc1=O` [1.233, 1-Methyl-2-[1-(4-piperidin-1-ylmethyl-phenyl)piperidin-4-ylmethoxy]-1H-[4,4′] bipyrimidinyl-6-one], the pIC50 is 7.38. For the compound `CN1CCC(CCN2CCC(Oc3nc(-c4ccncn4)cc(=O)n3C)CC2)CC1` [1.503, 1-Methyl-2-{1-[2-(1-methyl-piperidin-4-yl)ethyl]piperidin-4-yloxy)-1H-[4,4′]bipyrimidinyl-6-one], the pIC50 was 6.83. Same read-out and setting: in the case of `CC(=O)N1CCN(c2ccc(N3CCC(Oc4nc(-c5ccncn5)cc(=O)n4C)CC3)cc2)CC1` [1.210, 2-{1-[4-(4-Acetyl-piperazin-1-yl)phenyl]piperidin-4-yloxy}-1-methyl-1H-[4,4′]bipyrimidinyl-6-one] it was 7.56. On the same count and under the same terms, in the case of `COC(=O)N1CCCC(Oc2nc(-c3ccncn3)cc(=O)n2C)C1` (centres unmarked) [Compound No. 1.102, Methyl 3-(1-methyl-6-oxo-1,6-dihydro-[4,4′]bipyrimidinyl-2-yloxy) piperidine-1-carboxylate] it was 7.55; in that of `Cn1c(OC2CCN(Cc3ccccc3)CC2)nc(-c2ccncn2)cc1=O` [1.504, 2-(1-Benzyl-piperidin-4-yloxy)-1-methyl-1H-[4,4′]bipyrimidinyl-6-one], 6.02. Same read-out and setting: in the case of `Cn1c(OC2CCN(C(=O)Oc3ccccc3)CC2)nc(-c2ccncn2)cc1=O` [1.112, Phenyl 4-(1-methyl-6-oxo-1,6-dihydro-[4,4′]bipyrimidinyl-2-yloxy) piperidine-1-carboxylate] it was 6.97; in that of `Cn1c(OC2CCN(c3ccc(CN4Cc5ccccc5C4)cc3)CC2)nc(-c2ccncn2)cc1=O` [1.219, 2-{1-[4-(1,3-Dihydro-isoindol-2-ylmethyl)phenyl]piperidin-4-yloxy}-1-methyl-1H-[4,4′]bipyrimidinyl-6-one], 8.08; in that of `Cn1c(OC[C@@H]2CCN(c3ccsc3)C2)nc(-c2ccncc2F)cc1=O` [Compound No. 2.208, 6-(3-Fluoro-pyridin-4-yl)-3-methyl-2-[(3R)-1-(thiophen-3-yl)pyrrolidin-3-ylmethoxy]-3H-pyrimidin-4-one], 6.97. Turning to `Cn1c(OC[C@H]2CCCN2c2ccc(F)cc2)nc(-c2ccncc2F)cc1=O` [2.203, 2-[(2R)-1-(4-Fluoro-phenyl)pyrrolidin-2-ylmethoxy]-6-(3-fluoro-pyridin-4-yl)-3-methyl-3H-pyrimidin-4-one], the pIC50 was 7.37. Same read-out and setting: the result for `Cn1c(OC2CCNCC2)nc(-c2ccncc2F)cc1=O` [1.204, 6-(3-Fluoro-pyridin-4-yl)-3-methyl-2-(piperidin-4-yloxy)-3H-pyrimidin-4-one] reads 6.61. On the same count and under the same terms, the result for `Cn1c(OC2CCCN(c3ccccc3)C2)nc(-c2ccncn2)cc1=O` (centres unmarked) [Compound No. 1.101, 1-Methyl-2-(1-phenyl-piperidin-3-yloxy)-1H-[4,4′]bipyrimidinyl-6-one] reads 8.03; that for `Cn1c(OC2CCN(c3ccc(CN4CCNCC4)cc3)CC2)nc(-c2ccncn2)cc1=O` [Compound No. 1.202, 1-Methyl-2-[1-(4-piperazin-1-ylmethyl-phenyl)piperidin-4-yloxy]-1H-[4,4′]bipyrimidinyl-6-one], 7.89; that for `CN1CCC(N2CCC(Oc3nc(-c4ccncn4)cc(=O)n3C)CC2)CC1` [1.505, 1-Methyl-2-(1′-methyl-[1,4′]bipiperidinyl-4-yloxy)-1H-[4,4′] bipyrimidinyl-6-one], 6.40.

Consider `Cn1c(OC2CCN(c3ccc(CN4CCOCC4)cc3)CC2)nc(-c2ccncn2)cc1=O` [1.213, 1-Methyl-2-[1-(4-morpholin-4-ylmethyl-phenyl)piperidin-4-yloxy]-1H-[4,4′]bipyrimidinyl-6-one], for which the negative-log IC50 (pIC50) was 7.71. Same read-out and setting: in the case of `Cn1c(OC2CCN(c3ccc([N+](=O)[O-])s3)CC2)nc(-c2ccncn2)cc1=O` [1.228, 1-Methyl-2-[1-(5-nitro-thiophen-2-yl)piperidin-4-yloxy]-1H-[4,4′] bipyrimidinyl-6-one] it was 6.26.

As for `CC(=O)N1Cc2ccc(N3CCC(Oc4nc(-c5ccncn5)cc(=O)n4C)CC3)cc2C1` [1.230, 2-[1-(2-Acetyl-2,3-dihydro-1H-isoindol-5-yl)piperidin-4-yloxy]-1-methyl-1H-[4,4′]bipyrimidinyl-6-one], the negative-log IC50 (pIC50) was 6.81.

Take `CCN(CCOc1nc(-c2ccncc2F)cc(=O)n1C)c1cccc(C)c1` [1.808, 2-[2-(Ethyl-m-tolyl-amino)-ethoxy]-6-(3-fluoro-pyridin-4-yl)-3-methyl-3H-pyrimidin-4-one]: the negative-log IC50 (pIC50) was 7.17. Same read-out and setting: the result for `CC1CCCCC1Oc1nc(-c2ccncn2)cc(=O)n1C` (centres unmarked) [Compound No. 1.801, 1-Methyl-2-(2-methyl-cyclohexyloxy)-1H-[4,4′] bipyrimidinyl-6-one] reads 7.24. Same read-out and setting: in the case of `Cn1c(OC2CCN(c3cccnc3)CC2)nc(-c2ccncn2)cc1=O` [1.224, 1-Methyl-2-(1-pyridin-3-yl-piperidin-4-yloxy)-1H-[4,4′]bipyrimidinyl-6-one] it was 7.53.

The values above are taken from patent US9006232B2, “Pyrimidone derivatives” (Mitsubishi Tanabe Pharma Corporation, priority 2009, dated 2015).
